# Results as given in the supplement of paper PMC10307832.
# Legend:
# Assay in all cases: relative viability (nuclei count vs DMSO), 5 days (fraction); higher = more cells survive
# [1] = compound: CC(C)=CC[C@@H](O)C1=CC(=O)c2c(O)ccc(O)c2C1=O [Shikonin] + CC1(C)CCC(c2ccc(Cl)cc2)=C(CN2CCN(c3ccc(C(=O)NS(=O)(=O)c4ccc(N[C@H](CCN5CCOCC5)CSc5ccccc5)c(S(=O)(=O)C(F)(F)F)c4)cc3)CC2)C1 [Navitoclax] (partner 0.5 µM)
# In short: (§1)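 Five library-drug doses in √10 steps were combined with a fixed anchor-drug dose, or a single drug was given alone, by pin tool to lung cancer cell lines in 1536-well plates the day after seeding. Nuclei were stained and counted after 5 days. Relative viability is the nuclei count in treated wells over that in vehicle wells, taken as the median of duplicate plates.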
# [2] = compound: CC(C)=CC[C@@H](O)C1=CC(=O)c2c(O)ccc(O)c2C1=O [Shikonin] + CS(=O)(=O)CCNCc1ccc(-c2ccc3ncnc(Nc4ccc(OCc5cccc(F)c5)c(Cl)c4)c3c2)o1 [Lapatinib] (partner 2 µM)
# In short: as §1
# [3] = compound: CC(C)N(CCCNC(=O)Nc1ccc(C(C)(C)C)cc1)C[C@H]1O[C@@H](n2ccc3c(N)ncnc32)[C@H](O)[C@@H]1O + CCNC(=O)c1noc(-c2cc(C(C)C)c(O)cc2O)c1-c1ccc(CN2CCOCC2)cc1 [Luminespib] (partner 0.01 µM)
# In short: as §1
# [4] = compound: CC(C)N(CCCNC(=O)Nc1ccc(C(C)(C)C)cc1)C[C@H]1O[C@@H](n2ccc3c(N)ncnc32)[C@H](O)[C@@H]1O + Cc1nc(Nc2ncc(C(=O)Nc3c(C)cccc3Cl)s2)cc(N2CCN(CCO)CC2)n1 [Dasatinib] (partner 0.075 µM)
# In short: as §1
Cell Line,relative viability ([1]; first compound 0.01 µM),relative viability ([1]; first compound 0.1 µM),relative viability ([1]; first compound 0.3162 µM),relative viability ([1]; first compound 1 µM),relative viability ([2]; first compound 0.01 µM),relative viability ([2]; first compound 0.1 µM),relative viability ([2]; first compound 0.3162 µM),relative viability ([2]; first compound 1 µM),relative viability ([3]; first compound 0.08 µM),relative viability ([3]; first compound 0.253 µM),relative viability ([3]; first compound 0.8 µM),relative viability ([3]; first compound 2.53 µM),relative viability ([3]; first compound 8 µM),relative viability ([4]; first compound 0.08 µM),relative viability ([4]; first compound 0.253 µM),relative viability ([4]; first compound 0.8 µM),relative viability ([4]; first compound 2.53 µM),relative viability ([4]; first compound 8 µM)
NCI-H2170,0.578,0.511,0.58,0.61,0.257,0.271,0.276,0.266,0.793,0.762,0.718,0.661,0.629,0.429,0.478,0.55,0.591,0.562
NCI-H596,0.936,0.911,0.968,0.907,1.19,1.02,1.15,0.98,1.06,–,0.923,0.955,1.12,0.603,–,0.528,0.561,0.619
NCI-H838,1.12,1.25,1.28,1.2,1.02,1.03,0.979,0.996,0.366,0.273,0.307,0.331,0.286,0.268,0.262,0.279,0.263,0.31
HCC-15,0.742,0.655,0.784,0.747,0.945,0.996,0.918,0.919,0.327,0.378,0.435,0.33,0.31,0.596,0.684,0.574,0.581,0.591
NCI-H460,1.16,1.49,1.25,1.19,1.32,1.51,0.951,1.12,0.0341,0.0252,0.0359,0.0291,0.0376,0.41,0.531,0.453,0.504,0.456
EPLC-272H,1.17,1.07,1.27,1.14,0.869,1.2,1.08,1.22,0.0863,0.265,0.268,0.46,0.232,0.354,0.394,0.508,0.373,0.439
